Laboratory results from patent US20180002319A1, “MACROCYCLIC PICOLINAMIDE COMPOUNDS WITH FUNGICIDAL ACTIVITY” (DOW AGROSCIENCES LLC, priority 2014, published 2018).
Like-named read-outs stand apart in the source and are kept apart here.

What was measured:
Zymoseptoria tritici = experiment: Leaf Blotch of Wheat (SEPTTR) fungicidal activity; type: in vivo; settings: wheat leaf blotch; for pest or weed control at 100 ppm: High Volume application; for pest or weed control at 121.5 g/ha: Low Volume application, 121.5 g/H
Description: Example A: Evaluation of Fungicidal Activity: Leaf Blotch of Wheat (Zymoseptoria tritici; Bayer Code […]) Technical grades of materials were dissolved in acetone, which were then mixed with nine volumes of H2O containing 110 ppm Triton X-100. The fungicide solutions were applied onto wheat seedlings using an automated booth sprayer to run-off. All sprayed plants were allowed to air dry prior to further handling. All fungicides were evaluated using the aforementioned method for their activity vs. all target diseases, unless stated otherwise. Wheat leaf blotch and brown rust activity were also evaluated using track spray applications, in which case the fungicides were formulated as EC formulations, containing 0.1% Trycol 5941 in the spray solutions. Wheat plants (variety Yuma) were grown from seed in a greenhouse in 50% mineral soil/50% soil-less Metro mix until the first leaf was fully emerged, with 7-10 seedlings per pot. These plants were inoculated with an aqueous spore suspension of Zymoseptoria tritici either prior to or after fungicide treatments. After inoculation the plants were kept in 100% relative humidity (one day in a dark dew chamber followed by two to three days in a lighted dew chamber at 20° C.) to permit spores to germinate and infect the leaf. The plants were then transferred to a greenhouse set at 20° C. for disease to develop. When disease symptoms were fully expressed on the 1st leaves of untreated plants, infection levels were assessed on a scale of 0 to 100 percent disease severity. Percent disease control was calculated using the ratio of disease severity on treated plants relative to untreated plants.

Puccinia triticina = experiment: Wheat Brown Rust (PUCCRT) fungicidal activity; type: in vivo; settings: for pest or weed control at 121.5 g/ha: Low Volume application, 121.5 g/H
Description: Technical grades of materials were dissolved in acetone, which were then mixed with nine volumes of H2O containing 110 ppm Triton X-100. The fungicide solutions were applied onto wheat seedlings using an automated booth sprayer to run-off. All sprayed plants were allowed to air dry prior to further handling. All fungicides were evaluated using the aforementioned method for their activity vs. all target diseases, unless stated otherwise. Wheat leaf blotch and brown rust activity were also evaluated using track spray applications, in which case the fungicides were formulated as EC formulations, containing 0.1% Trycol 5941 in the spray solutions. Wheat plants (variety Yuma) were grown from seed in a greenhouse in 50% mineral soil/50% soil-less Metro mix until the first leaf was fully emerged, with 7-10 seedlings per pot. These plants were inoculated with an aqueous spore suspension of Zymoseptoria tritici either prior to or after fungicide treatments. After inoculation the plants were kept in 100% relative humidity (one day in a dark dew chamber followed by two to three days in a lighted dew chamber at 20° C.) to permit spores to germinate and infect the leaf. The plants were then transferred to a greenhouse set at 20° C. for disease to develop. When disease symptoms were fully expressed on the 1st leaves of untreated plants, infection levels were assessed on a scale of 0 to 100 percent disease severity. Percent disease control was calculated using the ratio of disease severity on treated plants relative to untreated plants. Example B: Evaluation of Fungicidal Activity: Wheat Brown Rust (Puccinia triticina; Bayer Code PUCCRT) Wheat plants (variety Yuma) were grown from seed in a greenhouse in 50% mineral soil/50% soil-less Metro mix until the first leaf was fully emerged, with 7-10 seedlings per pot. These plants were inoculated with an aqueous spore suspension of Puccinia triticina either prior to or after fungicide treatments. After inoculation the plants were kept in a dark dew room at 22° C. with 100% relative humidity overnight to permit spores to germinate and infect the leaf. The plants were then transferred to a greenhouse set at 24° C. for disease to develop. Fungicide formulation, application and disease assessment followed the procedures as described in the Example A.

[1] = 24 h, 1 day protectant, read-out: SEPTTR disease control, 1DP (1 Day Protectant)
[2] = 72 h, 3 day curative, read-out: SEPTTR disease control, 3DC (3 Day Curative)
[3] = 24 h, 1 day protectant, read-out: PUCCRT disease control, 1DP (1 Day Protectant)
[4] = 72 h, 3 day curative, read-out: PUCCRT disease control, 3DC (3 Day Curative)

| Structure (SMILES) | pest or weed control at 100 ppm (Zymoseptoria tritici; [1]) | pest or weed control at 121.5 g/ha (Zymoseptoria tritici; [1]) | pest or weed control at 100 ppm (Zymoseptoria tritici; [2]) | pest or weed control at 100 ppm (Puccinia triticina; 24 h, High Volume application, 100 ppm, 1 day protectant, read-out: PUCCRT disease control, 1DP (1 Day Protectant)) | pest or weed control at 121.5 g/ha (Puccinia triticina; [3]) | pest or weed control at 121.5 g/ha (Puccinia triticina; [4]) | pest or weed control at 121.5 g/ha (Zymoseptoria tritici; [2]) |
| --- | --- | --- | --- | --- | --- | --- | --- |
| CC(=O)OCOc1cccnc1C(=O)N[C@H]1CCCC[C@H](CC2CCCC2)[C@@H](Oc2ccccc2)[C@H](C)OC1=O [Compound 49] | < 80% | < 80% | < 80% | > 80% | > 80% | < 80% |  |
| COc1ccnc(C(=O)N[C@H]2CCCC[C@H](CC3CCCC3)[C@@H](Oc3ccccc3)[C@H](C)OC2=O)c1OCOC(C)=O [Compound 50] |  | > 80% |  |  | > 80% | > 80% | < 80% |
| CCOCC(=O)OCOc1c(OC)ccnc1C(=O)N[C@H]1CCCC[C@H](CC2CCCC2)[C@@H](Oc2ccccc2)[C@H](C)OC1=O [Compound 51, ((2-(((3S,8R,9R,10S)-8-(cyclopentylmethyl)-10-methyl-2-oxo-9-phenoxyoxecan-3-yl)carbamoyl)-4-methoxypyridin-3-yl)oxy)methyl 2-ethoxyacetate] |  | > 80% |  |  | > 80% | < 80% |  |
| COc1ccnc(C(=O)N[C@H]2CCCC[C@H](CC3CCCC3)[C@@H](Oc3ccccc3)[C@H](C)OC2=O)c1OC(C)=O [Compound 52] |  | > 80% |  |  | > 80% | < 80% |  |
| C=CCO[C@@H]1[C@@H](CC2CCCC2)CCCC[C@H](NC(=O)c2nccc(OC)c2OCOC(C)=O)C(=O)O[C@H]1C [Compound 53] |  |  |  |  | < 80% |  | < 80% |
| COc1ccnc(C(=O)N[C@H]2CCCC[C@H](CC3CCCC3)[C@@H](OC(=O)C(C)C)[C@H](C)OC2=O)c1OCOC(C)=O [Compound 54] |  | > 80% |  |  | > 80% | < 80% |  |
| CCOCC(=O)OCOc1c(OC)ccnc1C(=O)N[C@H]1CCCC[C@H](CC2CCCC2)[C@@H](OC(=O)C(C)C)[C@H](C)OC1=O [Compound 55] |  | < 80% |  |  | > 80% | < 80% | < 80% |
| COc1ccnc(C(=O)N[C@H]2CCCC[C@H](CC3CCCC3)[C@@H](OC(=O)C(C)C)[C@H](C)OC2=O)c1OC(C)=O [Compound 56, (2S,3R,4R,9S)-9-(3-acetoxy-4-methoxypicolinamido)-4-(cyclopentylmethyl)-2-methyl-10-oxooxecan-3-yl isobutyrate] |  | > 80% |  |  | > 80% | < 80% | < 80% |
| CCCO[C@@H]1[C@@H](CC2CCCC2)CCCC[C@H](NC(=O)c2nccc(OC)c2OCOC(C)=O)C(=O)O[C@H]1C [Compound 57] |  | < 80% |  |  | > 80% | < 80% |  |
| CCCO[C@@H]1[C@@H](CC2CCCC2)CCCC[C@H](NC(=O)c2nccc(OC)c2OC(C)=O)C(=O)O[C@H]1C [Compound 58] |  | < 80% |  |  | > 80% | < 80% | < 80% |
| COc1ccnc(C(=O)N[C@H]2CCCC[C@H](CC3CCCC3)[C@@H](OC)[C@H](C)OC2=O)c1OC(C)=O [Compound 59] |  | < 80% |  |  | > 80% | > 80% |  |
| COc1ccnc(C(=O)N[C@H]2CCCC[C@H](Cc3ccccc3)[C@@H](OC(=O)C(C)C)[C@H](C)OC2=O)c1OCOC(C)=O [Compound 60] |  | > 80% |  |  | > 80% | > 80% | > 80% |
| COc1ccnc(C(=O)N[C@H]2CCCC[C@H](CC3CCCC3)[C@@H](OC)[C@H](C)OC2=O)c1OCOC(C)=O [Compound 61] |  | < 80% |  |  | > 80% | > 80% | < 80% |
| COc1ccnc(C(=O)N[C@H]2CCCC[C@H](Cc3ccccc3)[C@@H](Oc3ccccc3)[C@H](C)OC2=O)c1OCOC(C)=O [Compound 62] |  | > 80% |  |  | > 80% | < 80% | > 80% |
| COc1ccnc(C(=O)N[C@H]2CCCC[C@H](Cc3ccccc3)[C@@H](Oc3ccccc3)[C@H](C)OC2=O)c1OC(C)=O [Compound 64] |  | > 80% |  |  | > 80% | < 80% | > 80% |
| COc1ccc(C[C@H]2CCOC[C@H](NC(=O)c3nccc(OC)c3OC(C)=O)C(=O)O[C@@H](C)[C@@H]2Oc2ccccc2)cc1 [Compound 65] |  | > 80% |  |  | > 80% | < 80% | < 80% |
| COc1ccc(C[C@H]2CCOC[C@H](NC(=O)c3nccc(OC)c3OCOC(C)=O)C(=O)O[C@@H](C)[C@@H]2Oc2ccccc2)cc1 [Compound 66] |  | > 80% |  |  | > 80% | < 80% | > 80% |
| COc1ccc(C[C@H]2CCOC[C@H](NC(=O)c3nccc(OC)c3OCOC(=O)C(C)C)C(=O)O[C@@H](C)[C@@H]2Oc2ccccc2)cc1 [Compound 67, ((4-methoxy-2-(((3S,8S,9R,10S)-8-(4-methoxybenzyl)-10-methyl-2-oxo-9-phenoxy-1,5-dioxecan-3-yl)carbamoyl)pyridin-3-yl)oxy)methyl isobutyrate] |  | > 80% |  |  | > 80% | < 80% | < 80% |
| COc1ccc(C[C@H]2CCOC[C@H](NC(=O)c3nccc(OC)c3OC(=O)C(C)C)C(=O)O[C@@H](C)[C@@H]2Oc2ccccc2)cc1 [Compound 68] |  | < 80% |  |  | > 80% |  | < 80% |
| CC[C@H]1CCOC[C@H](NC(=O)c2nccc(OC)c2OCOC(C)=O)C(=O)O[C@@H](C)[C@@H]1Oc1ccccc1 [Compound 69] |  | > 80% |  |  | > 80% | > 80% | > 80% |
| CC[C@H]1CCOC[C@H](NC(=O)c2nccc(OC)c2OCOC(C)=O)C(=O)O[C@@H](C)[C@@H]1OCC(C)C [Compound 70] |  | > 80% |  |  | > 80% | > 80% | < 80% |
| COc1ccnc(C(=O)N[C@H]2COCC[C@H](Cc3ccc(F)cc3)[C@@H](Oc3ccccc3)[C@H](C)OC2=O)c1OC(C)=O [Compound 71] |  | > 80% |  |  | > 80% | > 80% | > 80% |
| COc1ccnc(C(=O)N[C@H]2COCC[C@H](Cc3ccc(F)cc3)[C@@H](Oc3ccccc3)[C@H](C)OC2=O)c1OCOC(C)=O [Compound 72] |  | > 80% |  |  | > 80% | > 80% | > 80% |
